# Measurements from patent US20230159527A1, “COMPOUNDS AS BCL-2 INHIBITORS” (Fochon Pharmaceuticals, Ltd., priority 2020, published 2023).
# System: Toledo cells
# Experiment: Cell proliferation assay, Toledo cells (MTS, 72 h)
# Format: cell-based
# Details: Homo sapiens, Toledo cells, MTS, read-out: Toledo IC50
# How it was run: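 Toledo cells (30000/well, RPMI-1640 with 10% FBS) were preincubated for 4 h. They were then exposed to nine compound concentrations from 10000 to 1.5 nM for 72 h at 37 °C, 5% CO2. MTS was added for 2 h and absorbance read at 490 nm to give IC50.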
row,SMILES,IC50 [nM]
1,"CC(C)c1ccccc1[C@@H]1CC[C@@H](CO)N1C1CC2(CCN(c3ccc(C(=O)NS(=O)(=O)c4cc5c(c([N+](=O)[O-])c4)N[C@@H]([C@H]4CC[C@](C)(O)CC4)CO5)c(Oc4cnc5[nH]cc(F)c5c4)c3)CC2)C1 [Example D-253, 2-((3-fluoro-1H-pyrrolo[2,3-b]pyridin-5-yl)oxy)-N-(((S)-3-((1r,4S)-4-hydroxy-4-methylcyclohexyl)-5-nitro-3,4-dihydro-2H-benzo[b] [1,4]oxazin-7-yl)sulfonyl)-4-(2-((2S,5S)-2-(hydroxymethyl)-5-(2-isopropylphenyl)pyrrolidin-1-yl)-7-azaspiro[3.5]nonan-7-yl)benzamide]",1
2,"CC(C)c1ccccc1[C@@H]1CCC[C@@H]1N1CC2(CCN(c3ccc(C(=O)NS(=O)(=O)c4ccc(NC[C@H]5CC[C@](C)(O)CC5)c([N+](=O)[O-])c4)c(Oc4cc5cc[nH]c5nc4OC[C@@H]4COCCO4)c3)CC2)C1 (single isomer, unassigned) [Example D-236, 2-((6-(((S)-1,4-dioxan-2-yl)methoxy)-1H-pyrrolo[2,3-b]pyridin-5-yl)oxy)-N-((4-(((1r,4r)-4-hydroxy-4-methylcyclohexyl)methyl)amino)-3-nitrophenyl)sulfonyl)-4-(2-((1S,2S or 1R,2R)-2-(2-isopropylphenyl)cyclopentyl)-2,7-diazaspiro[3.5]nonan-7-yl)benzamide]",1
3,"CC(C)c1ccccc1[C@@H]1CCCN1C1CC2(CCN(c3ccc(C(=O)NS(=O)(=O)c4cc5c(c([N+](=O)[O-])c4)N[C@@H](C[C@H]4CC[C@](C)(O)CC4)CO5)c(Oc4cnc5[nH]cc(F)c5c4)c3)CC2)C1 (single isomer, unassigned) [Example D-19, 2-((3-fluoro-1H-pyrrolo[2,3-b]pyridin-5-yl)oxy)-N-(((S)-3-(((1r,4S)-4-hydroxy-4-methylcyclohexyl)methyl)-5-nitro-3,4-dihydro-2H-benzo[b][1,4]oxazin-7-yl)sulfonyl)-4-(2-((R or S)-2-(2-isopropylphenyl)pyrrolidin-1-yl)-7-azaspiro[3.5]nonan-7-yl)benzamide]",9
4,"CC(C)c1ccccc1[C@@H]1CCCN1C1CC2(CCN(c3ccc(C(=O)NS(=O)(=O)c4cc5c(c([N+](=O)[O-])c4)N[C@@H]([C@H]4CC[C@](C)(O)CC4)CO5)c(Oc4cc5cc[nH]c5nc4OC[C@@H](C)O)c3)CC2)C1 (single isomer, unassigned) [Example D-69, N-(((S)-3-((1r,4S)-4-hydroxy-4-methylcyclohexyl)-5-nitro-3,4-dihydro-2H-benzo[b][1,4]oxazin-7-yl)sulfonyl)-2-((6-((7)-2-hydroxypropoxy)-1H-pyrrolo[2,3-b]pyridin-5-yl)oxy)-4-(2-((R or S)-2-(2-isopropylphenyl)pyrrolidin-1-yl)-7-azaspiro[3.5]nonan-7-yl)benzamide]",1
5,"CC(C)c1ccccc1[C@@H]1CCCN1C1CC2(CCN(c3ccc(C(=O)NS(=O)(=O)c4cc5c(c([N+](=O)[O-])c4)N[C@@H]([C@H]4CC[C@H](O)CC4)CO5)c(Oc4cnc5[nH]cc(F)c5c4)c3)CC2)C1 (single isomer, unassigned) [Example D-41, 2-((3-fluoro-1H-pyrrolo[2,3-b]pyridin-5-yl)oxy)-N-(((S)-3-((1r,4S)-4-hydroxycyclohexyl)-5-nitro-3,4-dihydro-2H-benzo[b][1,4]oxazin-7-yl)sulfonyl)-4-(2-((R or S)-2-(2-isopropylphenyl)pyrrolidin-1-yl)-7-azaspiro[3.5]nonan-7-yl)benzamide]",1
6,"CC(C)c1ccccc1[C@@H]1CCCN1C1CC2(CCN(c3ccc(C(=O)NS(=O)(=O)c4cc5c(c([N+](=O)[O-])c4)N[C@@H]([C@H]4CC[C@](C)(O)CC4)CO5)c(Oc4cc5cc[nH]c5nc4OC[C@H]4CCN4C(=O)OC(C)(C)C)c3)CC2)C1 (single isomer, unassigned) [Example D-213, tert-butyl (R)-2-(((5-(2-(((S)-3-((1r,4S)-4-hydroxy-4-methylcyclohexyl)-5-nitro-3,4-dihydro-2H-benzo[b][1,4]oxazin-7-yl)sulfonyl)carbamoyl)-5-(2-((R or S)-2-(2-isopropylphenyl)pyrrolidin-1-yl)-7-azaspiro[3.5]nonan-7-yl)phenoxy)-1H-pyrrolo[2,3-b]pyridin-6-yl)oxy)methyl)azetidine-1-carboxylate]",1
7,"COc1nc2[nH]ccc2cc1Oc1cc(N2CCC3(CC2)CN([C@H]2CCC[C@H]2c2ccccc2C(C)C)C3)ccc1C(=O)NS(=O)(=O)c1ccc(NC[C@H]2CC[C@](C)(O)CC2)c([N+](=O)[O-])c1 (single isomer, unassigned) [Example D-91, N-((4-((((1r,4r)-4-hydroxy-4-methylcyclohexyl)methyl)amino)-3-nitrophenyl)sulfonyl)-4-(2-((1S,2S or 1R,2R)-2-(2-isopropylphenyl)cyclopentyl)-2,7-diazaspiro[3.5]nonan-7-yl)-2-((6-methoxy-177-pyrrolo [2,3-b]pyridin-5-yl)oxy)benzamide]",1
8,"CC(C)Oc1nc2[nH]ccc2cc1Oc1cc(N2CCC3(CC2)CC(N2CCC[C@H]2c2ccccc2C(C)C)C3)ccc1C(=O)NS(=O)(=O)c1cc2c(c([N+](=O)[O-])c1)N[C@@H]([C@H]1CC[C@](C)(O)CC1)CO2 (single isomer, unassigned) [Example D-66, N-(((S)-3-((1r,4S)-4-hydroxy-4-methylcyclohexyl)-5-nitro-3,4-dihydro-2H-benzo[b][1,4]oxazin-7-yl)sulfonyl)-2-((6-isopropoxy-1H-pyrrolo[2,3-b]pyridin-5-yl)oxy)-4-(2-((R or S)-2-(2-isopropylphenyl)pyrrolidin-1-yl)-7-azaspiro[3.5]nonan-7-yl)benzamide]",1
9,"CC(C)c1ccccc1C1=CCCC1N1CC2(CCN(c3ccc(C(=O)NS(=O)(=O)c4cc5c(c([N+](=O)[O-])c4)N[C@@H]([C@H]4CC[C@](C)(O)CC4)CO5)c(Oc4cnc5[nH]cc(F)c5c4)c3)CC2)C1 (stereo partly drawn) [Example D-77, 2-((3-fluoro-1H-pyrrolo[2,3-b]pyridin-5-yl)oxy)-N-(((S)-3-((1r,4S)-4-hydroxy-4-methylcyclohexyl)-5-nitro-3,4-dihydro-2H-benzo[b] [1,4]oxazin-7-yl)sulfonyl)-4-(2-(2-(2-isopropylphenyl)cyclopent-2-en-1-yl)-2,7-diazaspiro[3.5]nonan-7-yl)benzamide]",1
10,"CSc1nc2[nH]ccc2cc1Oc1cc(N2CCC3(CC2)CC(N2CCC[C@H]2c2ccccc2C(C)C)C3)ccc1C(=O)NS(=O)(=O)c1cc2c(c([N+](=O)[O-])c1)N[C@@H]([C@H]1CC[C@](C)(O)CC1)CO2 (single isomer, unassigned) [Example D-191, N-(((S)-3-((1r,4S)-4-hydroxy-4-methylcyclohexyl)-5-nitro-3,4-dihydro-2H-benzo[b][1,4]oxazin-7-yl)sulfonyl)-4-(2-((R or S)-2-(2-isopropylphenyl)pyrrolidin-1-yl)-7-azaspiro[3.5]nonan-7-yl)-2-((6-(methylthio)-1H-pyrrolo [2,3-b]pyridin-5-yl)oxy)benzamide]",1
11,"CC(C)c1ccccc1[C@@H]1COCCN1C1CC2(CCN(c3ccc(C(=O)NS(=O)(=O)c4cc5c(c([N+](=O)[O-])c4)N[C@@H]([C@H]4CC[C@](C)(O)CC4)CO5)c(Oc4cnc5[nH]cc(F)c5c4)c3)CC2)C1 (single isomer, unassigned) [Example D-1, 2-((3-fluoro-1H-pyrrolo[2,3-b]pyridin-5-yl)oxy)-N-(((S)-3-((1r,4S)-4-hydroxy-4-methylcyclohexyl)-5-nitro-3,4-dihydro-2H-benzo[b] [1,4]oxazin-7-yl)sulfonyl)-4-(2-((R or S)-3-(2-isopropylphenyl)morpholino)-7-azaspiro[3.5]nonan-7-yl) benzamide]",1

# Same assay, conditions: Homo sapiens, Toledo, read-out: Toledo IC50 (nM)
row,SMILES,IC50 [nM]
1,"CC(C)c1ccccc1[C@@H]1COCCN1C1CC2(CCN(c3ccc(C(=O)NS(=O)(=O)c4cc5c(c([N+](=O)[O-])c4)N[C@@H]([C@H]4CC[C@](C)(O)CC4)CO5)c(Oc4cnc5[nH]cc(Br)c5c4)c3)CC2)C1 (single isomer, unassigned) [Example D-3, 2-((3-bromo-1H-pyrrolo[2,3-b]pyridin-5-yl)oxy)-N-((S)-3-((1r,4S)-4-hydroxy-4-methylcyclohexyl)-5-nitro-3,4-dihydro-2H-benzo [b][1,4]oxazin-7-yl)sulfonyl)-4-(2-((R or S)-3-(2-isopropylphenyl)morpholino)-7-azaspiro[3.5]nonan-7-yl) benzamide]",1

# Same assay, conditions: Toledo cells, MTS, read-out: Toledo IC50
row,SMILES,IC50 [nM]
1,"CC(C)c1ccccc1C1COCCN1C1CC2(CCN(c3ccc(C(=O)NS(=O)(=O)c4cc5c(c([N+](=O)[O-])c4)S[C@@H](C4CCC(C)(O)CC4)CO5)c(Oc4cnc5[nH]cc(F)c5c4)c3)CC2)C1 (single isomer, unassigned) [Example E-6, 2-((3-fluoro-1H-pyrrolo[2,3-b]pyridin-5-yl)oxy)-N-(((S)-3-((1r,4S)-4-hydroxy-4-methylcyclohexyl)-5-nitro-2,3-dihydrobenzo [b][1,4]oxathiin-7-yl)sulfonyl)-4-(2-((R or S)-3-(2-isopropylphenyl)morpholino)-7-azaspiro[3.5]nonan-7-yl)benzamide]",1
2,"CC(C)c1ccccc1[C@H]1CCCN1C1CC2(CCN(c3ccc(C(=O)NS(=O)(=O)c4cc5c(c([N+](=O)[O-])c4)NC([C@@H]4COCCO4)CO5)c(Oc4cnc5[nH]cc(F)c5c4)c3)CC2)C1 (single isomer, unassigned) [Example D-49b, N-(((R or S)-3-((R)-1,4-dioxan-2-yl)-5-nitro-3,4-dihydro-2H-benzo[b][1,4]oxazin-7-yl)sulfonyl)-2-((3-fluoro-1H-pyrrolo[2,3-b]pyridin-5-yl)oxy)-4-(2-((R or S)-2-(2-isopropylphenyl)pyrrolidin-1-yl)-7-azaspiro[3.5]nonan-7-yl)benzamide]",1
